According to patent US20210220408A1, “ARYL HYDROCARBON RECEPTOR ANTAGONISTS AND METHODS OF USE” (Magenta Therapeutics Inc., priority 2018, published 2021):

Biological target: T1, aryl hydrocarbon receptor (AHR) (Homo sapiens, UniProt P35869)
T1 sequence (P35869 11-848): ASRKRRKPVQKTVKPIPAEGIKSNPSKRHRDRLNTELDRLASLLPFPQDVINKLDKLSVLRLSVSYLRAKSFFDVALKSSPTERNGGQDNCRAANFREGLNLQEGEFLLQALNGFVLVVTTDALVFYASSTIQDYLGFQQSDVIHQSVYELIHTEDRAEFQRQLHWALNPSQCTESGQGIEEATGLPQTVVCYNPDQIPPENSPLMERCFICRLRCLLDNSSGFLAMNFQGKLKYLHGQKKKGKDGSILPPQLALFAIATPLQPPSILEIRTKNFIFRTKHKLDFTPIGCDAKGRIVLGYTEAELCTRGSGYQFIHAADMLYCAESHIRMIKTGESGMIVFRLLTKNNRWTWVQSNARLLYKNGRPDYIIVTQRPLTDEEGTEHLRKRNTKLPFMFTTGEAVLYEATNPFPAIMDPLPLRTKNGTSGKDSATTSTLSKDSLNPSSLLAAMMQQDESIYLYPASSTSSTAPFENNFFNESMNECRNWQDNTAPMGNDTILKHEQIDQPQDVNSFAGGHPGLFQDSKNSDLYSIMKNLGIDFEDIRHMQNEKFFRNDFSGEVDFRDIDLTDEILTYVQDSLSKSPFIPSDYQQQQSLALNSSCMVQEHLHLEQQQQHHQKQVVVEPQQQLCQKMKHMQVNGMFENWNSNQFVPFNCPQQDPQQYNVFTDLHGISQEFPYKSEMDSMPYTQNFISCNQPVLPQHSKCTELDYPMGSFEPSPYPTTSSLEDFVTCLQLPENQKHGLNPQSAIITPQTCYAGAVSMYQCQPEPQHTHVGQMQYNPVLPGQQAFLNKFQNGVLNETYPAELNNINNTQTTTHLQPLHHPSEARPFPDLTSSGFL
Experiment: DRE-Luciferase reporter high-throughput screen (AHR antagonist, VAF347-activated)

| SMILES | IC50 [nM] |
| --- | --- |
| N#Cc1cc(NCCOCC(F)(F)F)nc2ccc([N+](=O)[O-])cc12 [154A] | > 2000 |
| Cc1cccc(NC(=O)c2ccc3c(c2)CC(C)O3)c1 (stereo not shown) [38A] | > 2000 |
| Cc1cccc(-n2ccc(=O)c(C(=O)Nc3ccccc3F)n2)c1 [compound 31] | 200 to 500 |
| CN1CC(c2ccccc2)=Cc2c1ccc1nonc21 [188A] | 1000 to 2000 |
| COC(=O)c1cc2c(ccn2-c2ccc(F)cc2)n1CCC#N [116B] | 1000 to 2000 |
| CNc1nc(-c2sc3ncnn3c2C)cs1 [40B] | 1000 to 2000 |
| O=C(Nc1nc(-c2ccc(F)cc2)n[nH]1)c1cc(F)cc(F)c1 [14B] | 500 to 1000 |
| CCn1c2ccccc2c2nnc(-n3nc(C)cc3C)nc21 [122B] | 1000 to 2000 |
| Clc1ccc(-c2noc(-c3c[nH]nc3-c3ccccc3)n2)cc1 [86B] | > 2000 |
| Cc1cc([N+](=O)[O-])c(N)cc1N1CCN(c2ccccc2)CC1 [67A] | 1000 to 2000 |
| CCOc1ccc(C(=O)Nc2ccccc2C(N)=O)cc1 [7B] | 1000 to 2000 |
| COc1ccc(C(=O)Nc2cc(C)cc(C)n2)cc1 [9B] | 1000 to 2000 |
| COc1ccc(C(=O)Nc2nc3c(s2)CCCC3)cc1 [171A] | 1000 to 2000 |
| CCOC(=O)c1c(N)sc(C(=O)Nc2cccc(C(F)(F)F)c2)c1C [20A] | 1000 to 2000 |
| Cc1[nH]c2c(C(=O)Nc3cccc(CN4CCOC4=O)c3)cccc2c1C [40A] | 1000 to 2000 |
| c1ccc(-c2cc(-c3cn4cccnc4n3)on2)cc1 [128A] | 1000 to 2000 |
| COc1ccc(NC(=O)CSc2nnc(-c3sc4nc(C)cc(C)c4c3N)o2)cc1 [82B] | 500 to 1000 |
| O=[N+]([O-])c1cc(C(F)(F)F)ccc1Oc1ccc(-c2noc(-c3ccccc3F)n2)cc1 [compound 157] | 500 to 1000 |
| COc1ccc(N2CC(c3ccc(F)cc3)=CC2=O)cc1 [152A] | 1000 to 2000 |
| Cc1cc(C)n(CC(C)Nc2ccc(Cl)c(C#N)n2)n1 (stereo not shown) [91A] | 1000 to 2000 |
| N#Cc1cc(F)c(NC(=O)c2nsc(Cl)c2Cl)cc1F [28A] | 1000 to 2000 |
| COc1ccc(CC(=O)Nc2ccc(-c3csc(C)n3)cc2)cc1 [143A] | > 2000 |
| CCc1cc2c(=O)c(-c3nc(C)cs3)coc2c(CN2CCCC(c3cccnc3)C2)c1O (stereo not shown) [197A] | 1000 to 2000 |
| CC(=O)Nc1cn(-c2ccccc2)nc1-c1ccc(Cl)s1 [55B] | 500 to 1000 |

| SMILES | IC50 [nM] |
| --- | --- |
| Cc1nn2c(-c3cccc(NC(=O)CN4CCCCC4)c3)nnc2c2ccccc12 [119B] | 200 to 500 |
| COc1ccccc1CNc1[nH]nc2nc(C)cc(C)c12 [123A] | 1000 to 2000 |
| CS(=O)(=O)N1CCc2cc(-c3csc(Cc4cn5cc(Cl)cc(Cl)c5n4)n3)ccc21 [57A] | 1000 to 2000 |
| CC(=O)c1csc(COc2cc(Cl)cc(Cl)c2)n1 [55A] | 1000 to 2000 |
| Clc1ccc2nnn(OCc3coc(-c4cccs4)n3)c2c1 [132A] | 1000 to 2000 |
| CC(=O)c1ccc(C(=O)Nc2ccc(C)cc2Cl)s1 [21A] | 1000 to 2000 |
| COc1cccc(-c2nn3c(-c4ccccn4)nnc3s2)c1 [98A] | 1000 to 2000 |
| CC(C)(C)c1cc(C(=O)Nc2ccc3c(c2)CCN3S(C)(=O)=O)nc2ncnn12 [compound 48] | < 200 |
| O=c1[nH]c2ccccc2nc1NCc1ccc(F)cc1 [168A] | 1000 to 2000 |
| CNC(=O)c1ccc(CN(C)C(=O)c2ccc(-c3nnc(-c4ccccc4C)o3)cc2)cc1 [140A] | 1000 to 2000 |
| O=C(Cc1ccccc1)Nc1ccc2nc(C(F)(F)F)[nH]c2c1 [111A] | 1000 to 2000 |
| COc1ccc(Cl)cc1C(=O)Nc1ccc(NC(=O)c2cccc(S(C)(=O)=O)c2)c(Cl)c1 [10B] | 200 to 500 |
| O=c1[nH]nc(CNc2ccc(Cl)cc2Cl)c2ccccc12 [compound 156] | 500 to 1000 |
| COCCNc1c(C)c(C)nc2cc(-c3cc(C)oc3C)nn12 [119A] | 1000 to 2000 |
| O=C(NCCc1ccc(Cl)cc1)c1cccc2nsnc12 [107B] | 200 to 500 |
| Cc1ccc(NC(=O)c2cc3c(=O)[nH]c(=O)n(C)c3nc2C)cc1Cl [28B] | 200 to 500 |
| Cc1cc(C)nc(N2CCN(c3ccc(Cl)cc3)CC2)n1 [70A] | > 2000 |
| Cc1nn(C(=O)Nc2ccccc2)c(C)c1Oc1ccccc1 [22A] | 1000 to 2000 |
| CCCc1cc(C(=O)N2CCC(C3CCCCC3)C2)[nH]n1 (stereo not shown) [106A] | 1000 to 2000 |
| COC(=O)c1cccc(NC(=O)c2nsc3ccccc23)c1 [compound 33] | 200 to 500 |
| CC(=O)c1cnc(N2CCN(c3cccc(Cl)c3)CC2)nc1C [69A] | 1000 to 2000 |
| CCn1c(-c2csc(N(C(C)=O)c3ccccc3)n2)nc2ccccc21 [39B] | 1000 to 2000 |
| C/C(=N\CCc1ccccc1)c1c(C(F)(F)F)[nH]n(-c2nc3ccccc3s2)c1=O [153A] | > 2000 |
| O=C(Nc1cc(=O)c2ccccc2o1)c1ccc(Cl)cc1 [45A] | > 2000 |

| SMILES | IC50 [nM] |
| --- | --- |
| COc1ccc(-c2cc(=O)c3cc(OC(=O)C(C)(C)C)ccc3o2)cc1 [110B] | 200 to 500 |
| COc1ccc2[nH]c(C(=O)Nc3ccc(Br)c(C)n3)cc2c1 [25B] | 200 to 500 |
| N#Cc1ccccc1OCc1ccc(C(N)=O)cc1 [142A] | > 2000 |
| O=C(Cn1cnnn1)N(CCc1ccccc1)c1nc(-c2ccccc2)cs1 [41B] | 1000 to 2000 |
| Clc1ccc(-c2ncc(-c3cc[nH]n3)s2)cc1 [compound 64] | 500 to 1000 |
| O=C(COc1ccccc1-c1nnc(-c2ccccc2)o1)NCc1ccccn1 [139A] | 1000 to 2000 |
| Cc1nc(NC(=O)c2cc3nc(N(C)C)n(-c4ccccc4)c3s2)sc1C [49A] | 1000 to 2000 |
| Cc1cccn2c(=O)c3cc(C(=O)NCc4ccccc4Cl)sc3nc12 [125B] | 200 to 500 |
| O=C(Nc1ccc2[nH]c(C(F)(F)F)nc2c1)c1cccn(Cc2ccccc2)c1=O [compound 49] | < 200 |
| Cc1ccc2nc3c(c(N)c2c1)CCN3c1ccccc1 [124B] | 500 to 1000 |
| Cc1ccc(S(=O)(=O)N=C(N)Nc2nc(C)c3cc(C)ccc3n2)cc1 [164A] | 1000 to 2000 |
| Cc1ccc(NC(=O)c2cc3ccccc3n(C)c2=O)cc1 [29B] | 1000 to 2000 |
| O=C1CC(c2ccc(Cl)cc2)CN1C(=O)Nc1ccccc1 (stereo not shown) [103B] | 500 to 1000 |
| c1ccc(N2CCN(c3nc(N4CCCCC4)nc4nccnc34)CC2)cc1 [75A] | 1000 to 2000 |
| Cc1cc(C)c2cc(C#N)c(Oc3cccnc3)nc2c1 [158A] | 1000 to 2000 |
| Cc1ccc(NC(=O)c2cc(C(C)C)n[nH]2)cc1 [24A] | > 2000 |
| O=[N+]([O-])c1cccc(-c2csc(-c3cccc(-n4cnc(Cl)c4Cl)c3)n2)c1 [compound 51] | 200 to 500 |
| CCC1CCc2c(sc(NC(=O)c3c(C)noc3C)c2C(N)=O)C1 (stereo not shown) [31B] | 1000 to 2000 |
| O=C(COC(=O)c1cn2ccccc2n1)Nc1ccc(Cl)cc1Cl [117A] | > 2000 |
| Cc1ccc(NC(=O)CSc2nnc(C)c3ccccc23)cc1 [160A] | 1000 to 2000 |
| CC(=O)c1oc2ccc3c(C)cc(=O)oc3c2c1C [118B] | > 2000 |
| CCn1cnc(-c2nc(C(=O)Nc3cccc(F)c3)c3ccccn23)c1 [48A] | > 2000 |
| CN(Cc1ccsc1)c1nc2ccccn2c1[N+](=O)[O-] [68B] | 1000 to 2000 |
| CN(C)c1oc(-c2ccc(COc3ccccc3)o2)nc1C#N [151A] | 1000 to 2000 |

| SMILES | IC50 [nM] |
| --- | --- |
| N#Cc1ccc(OCc2ncc(C(F)(F)F)cc2Cl)cc1 [93A] | 1000 to 2000 |
| O=C(NCCc1ccccc1)c1cnc(-c2noc3ccccc23)s1 [60A] | > 2000 |
| Cc1cc(C)c2cc(C(=O)N(C)Cc3ccc(C)o3)[nH]c2c1 [62B] | 500 to 1000 |
| Nc1cnc(C(=O)c2ccc(Cl)cc2)s1 [66A] | 1000 to 2000 |
| CC1CN=C(N2CCN(c3nc4c(cc3C#N)CCC4)CC2)S1 (stereo not shown) [76A] | 1000 to 2000 |
| OCc1cc(Cl)c(OCc2ccc(F)cc2)c(Cl)c1 [90B] | 1000 to 2000 |
| O=c1cc(CSc2nc3cc(Cl)ccc3o2)nc2sccn12 [112B] | 200 to 500 |
| COC(=O)c1ccc(NC(=O)CCn2nc(C)cc2C)s1 [108A] | > 2000 |
| COc1cccc(Nc2ccc(-c3ccccc3)nn2)c1 [88A] | > 2000 |
| Cc1ccc(N2CC[C@@H]3[C@@H]2CCN3c2ncc(F)cn2)nn1 [181A] | 1000 to 2000 |
| Clc1ccc(-c2noc(-c3csnn3)n2)cc1 [84B] | 500 to 1000 |
| O=C(c1csc(-c2ccsc2)n1)N1CCCc2cc(C(F)(F)F)ccc21 [37B] | 200 to 500 |
| Clc1ccccc1CNc1ccc(-c2ccccc2)nn1 [87A] | 1000 to 2000 |
| Cc1c(Cl)cccc1NC(=O)c1occc1COc1ccccc1 [19A] | 1000 to 2000 |
| N#Cc1c(N)nc2c(oc3ccccc32)c1-c1ccccc1 [123B] | 1000 to 2000 |
| CSc1ccc(-c2nnc(NC(=O)C(C)(C)C)s2)cc1 [99B] | > 2000 |
| O=C(c1csc2nc(-c3ccc(F)cc3)cn12)N1C[C@@H]2CC[C@@H]1C2 [97A] | 1000 to 2000 |
| CNC(=O)c1ccc(-c2cc(C(F)(F)F)nn2C)s1 [60B] | 1000 to 2000 |
| CCOC(=O)c1sc(NC(=O)c2sccc2C)cc1C [compound 44] | 500 to 1000 |
| CCOC(=O)Nc1ccc(-n2ccc(C)n2)cc1 [57B] | 1000 to 2000 |
| CN(Cc1ccn(C)n1)C(=O)c1cc(-c2ccc(Cl)c(Cl)c2)[nH]n1 [104A] | > 2000 |
| COc1ccc(-c2csc(C3=C(N)N(C(C)C)CC3=O)n2)cc1 [compound 55] | 500 to 1000 |
